Literature values as cited in patent US20080221127A1, “PPAR ACTIVE COMPOUNDS” (Plexxikon Inc, priority 2007, published 2008).

Tests used:
PPARδ = molecular target: T1, PPARδ (Homo sapiens, UniProt Q03181)
T1 sequence (Q03181 1-441): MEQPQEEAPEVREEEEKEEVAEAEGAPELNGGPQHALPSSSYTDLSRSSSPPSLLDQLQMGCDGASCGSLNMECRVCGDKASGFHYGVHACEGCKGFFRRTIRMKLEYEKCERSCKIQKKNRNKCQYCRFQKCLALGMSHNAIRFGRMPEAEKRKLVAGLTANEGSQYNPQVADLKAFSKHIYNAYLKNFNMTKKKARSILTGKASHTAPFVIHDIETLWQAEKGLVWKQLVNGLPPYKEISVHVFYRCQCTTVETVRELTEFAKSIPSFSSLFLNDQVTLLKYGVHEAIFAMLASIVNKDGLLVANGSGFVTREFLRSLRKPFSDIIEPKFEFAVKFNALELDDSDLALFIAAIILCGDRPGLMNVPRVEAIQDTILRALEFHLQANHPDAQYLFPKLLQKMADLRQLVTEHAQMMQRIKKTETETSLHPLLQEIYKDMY

murine PPARα = molecular target: T2, murine PPARα (Mus musculus, UniProt P23204)
T2 sequence (P23204 1-468): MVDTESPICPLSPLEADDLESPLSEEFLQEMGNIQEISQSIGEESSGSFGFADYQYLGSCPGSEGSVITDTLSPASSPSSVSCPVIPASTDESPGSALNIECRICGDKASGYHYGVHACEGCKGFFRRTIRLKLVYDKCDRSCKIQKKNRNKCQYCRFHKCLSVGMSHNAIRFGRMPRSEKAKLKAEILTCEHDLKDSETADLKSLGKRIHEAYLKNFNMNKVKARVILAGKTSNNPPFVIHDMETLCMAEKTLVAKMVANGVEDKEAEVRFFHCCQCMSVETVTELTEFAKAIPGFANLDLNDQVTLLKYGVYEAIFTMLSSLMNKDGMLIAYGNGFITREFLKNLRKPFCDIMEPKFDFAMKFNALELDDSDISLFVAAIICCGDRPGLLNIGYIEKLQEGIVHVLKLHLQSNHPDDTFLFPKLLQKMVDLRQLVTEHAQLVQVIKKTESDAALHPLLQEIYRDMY

agonist selectivity for PPARδ over PPARγ (PPARδ): approximately 30 fold
activity on murine PPARα (murine PPARα): inactive
Structure (SMILES): CCCc1c(OCCCOc2ccc(OCC(=O)O)cc2)ccc(C(C)=O)c1O [L-165041]
